Where two headings read alike, the source gives them in different places.
Experiments:
[1] = target: recombinant human baculovirus-expressed AXL (Homo sapiens (Human), UniProt P30530); assay: AXL Kinase Assay (HTRF KinEASE); assay type: biochemical; conditions: average of two or more determinations
Protocol: The ability of compounds to inhibit the kinase activity of recombinant human baculovirus-expressed AXL was measured by homogeneous TRF (HTRF) using Cisbio's KinEASE™ assay system in white 384-well Optiplates. Assay buffer contained 1 mM DTT, 2 mM MnCl2, 2% DMSO, […] supplement enzymatic buffer, and 1× enzymatic buffer. A 2× concentration of tyrosine kinase (TK) substrate-biotin/ATP mixture made in assay buffer was added to plates at 10 μL/well using the Multidrop Combi (Thermo Fisher Scientific, Waltham, Mass.). […] Compounds (100 nL), diluted in 100% DMSO on the Biomek FX, (Beckman Coulter, Inc., Brea, Calif.), were transferred to the assay plates using the Biomek FX pintool (2.5% final DMSO in assay). […] Plates were sealed, briefly shaken and incubated at 25° C. for 30 minutes. […] Plates were sealed, briefly shaken and incubated at 25° C. for 1 hour.
Inhibition curves for compounds were generated by plotting percent control activity versus log 10 of the concentration of compound. IC50 values were calculated by nonlinear regression using the sigmoidal dose-response (variable slope) equation in GraphPad Prism as follows: y=bottom+(top−bottom)/(1+10(log IC50−x)*Hill Slope) where y is the % kinase activity at a given concentration of compound, x is the logarithm of the concentration of compound, bottom is the % of control kinase activity at the highest compound concentration tested, and top is the % of control kinase activity at the lowest compound concentration examined. The values for bottom and top were fixed at 0 and 100, respectively.

[2] = target: recombinant human baculovirus-expressed cMET (Homo sapiens (Human), UniProt P08581); assay: C-MET Kinase Assay (HTRF KinEASE); assay type: biochemical
How it was run: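 HTRF KinEASE format with recombinant human baculovirus-expressed cMET at 8 ng/mL, biotinylated peptide at 0.1 μM and ATP at 0.02 μM. IC50 came from percent control activity versus log concentration, fitted by nonlinear regression to a variable-slope sigmoidal equation with bottom fixed at 0 and top at 100.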

[3] = average of two or more determinations, read-out: c-MET IC50

IC50 [1] [nM] | IC50 [2, 3] [nM] | SMILES | IC50 [2] [nM]
< 10 | < 10 | CCn1cc(C(=O)Nc2ccc(Oc3ccnc4cc(OC)c(OC)cc34)c(F)c2)c(=O)n(-c2ccc(F)cc2)c1=O [Example 1, 1-Ethyl-3-(4-fluorophenyl)-2,4-dioxo-1,2,3,4-tetrahydropyrimidine-5-carboxylicacid [4-(6,7-dimethoxyquinolin-4-yloxy)-3-fluorophenyl]amide] | –
< 10 | < 10 | COc1cc2nccc(Oc3ccc(NC(=O)c4cn(C)c(=O)n(-c5ccc(F)cc5)c4=O)cc3F)c2cc1OC [Example 2, 3-(4-Fluorophenyl)-1-methyl-2,4-dioxo-1,2,3,4-tetrahydropyrimidine-5-carboxylic acid [4-(6,7-dimethoxyquinolin-4-yloxy)-3-fluoro-phenyl]-amide] | –
< 10 | 10 to 100 | COCCn1cc(C(=O)Nc2ccc(Oc3ccnc4cc(OC)c(OC)cc34)c(F)c2)c(=O)n(-c2ccc(F)cc2)c1=O [Example 3, 3-(4-Fluorophenyl)-1-(2-methoxyethyl)-2,4-dioxo-1,2,3,4-tetrahydropyrimidine-5-carboxylic acid [4-(6,7-dimethoxyquinolin-4-yloxy)-3-fluorophenyl]-amide] | –
< 10 | 10 to 100 | CCOCCn1cc(C(=O)Nc2ccc(Oc3ccnc4cc(OC)c(OC)cc34)c(F)c2)c(=O)n(-c2ccc(F)cc2)c1=O [Example 4, 1-(2-Ethoxyethyl)-3-(4-fluorophenyl)-2,4-dioxo-1,2,3,4-tetrahydropyrimidine-5-carboxylic acid [4-(6,7-dimethoxyquinolin-4-yloxy)-3-fluorophenyl]-amide] | –
< 10 | < 10 | COc1cc2nccc(Oc3ccc(NC(=O)c4cn(CC5CC5)c(=O)n(-c5ccc(F)cc5)c4=O)cc3F)c2cc1OC [Example 6, 1-Cyclopropylmethyl-3-(4-fluorophenyl)-2,4-dioxo-1,2,3,4-tetrahydropyrimidine-5-carboxylic acid [4-(6,7-dimethoxyquinolin-4-yloxy)-3-fluorophenyl]-amide] | –
< 10 | 10 to 100 | COCCCn1cc(C(=O)Nc2ccc(Oc3ccnc4cc(OC)c(OC)cc34)c(F)c2)c(=O)n(-c2ccc(F)cc2)c1=O [Example 7, 3-(4-Fluorophenyl)-1-(3-methoxypropyl)-2,4-dioxo-1,2,3,4-tetrahydropyrimidine-5-carboxylic acid [4-(6,7-dimethoxyquinolin-4-yloxy)-3-fluorophenyl]-amide] | –
< 10 | 10 to 100 | COc1cc2nccc(Oc3ccc(NC(=O)c4cn(CC(C)C)c(=O)n(-c5ccc(F)cc5)c4=O)cc3F)c2cc1OC [Example 8, 3-(4-Fluorophenyl)-1-isobutyl-2,4-dioxo-1,2,3,4-tetrahydropyrimidine-5-carboxylic acid [4-(6,7-dimethoxyquinolin-4-yloxy)-3-fluorophenyl]-amide] | –
< 10 | < 10 | C=CCn1cc(C(=O)Nc2ccc(Oc3ccnc4cc(OC)c(OC)cc34)c(F)c2)c(=O)n(-c2ccc(F)cc2)c1=O [Example 9, 1-Allyl-3-(4-fluorophenyl)-2,4-dioxo-1,2,3,4-tetrahydropyrimidine-5-carboxylic acid [4-(6,7-dimethoxyquinolin-4-yloxy)-3-fluorophenyl]-amide] | –
< 10 | 10 to 100 | CCCn1cc(C(=O)Nc2ccc(Oc3ccnc4cc(OC)c(OC)cc34)c(F)c2)c(=O)n(-c2ccc(F)cc2)c1=O [Example 11, 3-(4-Fluorophenyl)-2,4-dioxo-1-propyl-1,2,3,4-tetrahydropyrimidine-5-carboxylic acid [4-(6,7-dimethoxyquinolin-4-yloxy)-3-fluorophenyl]-amide] | –
< 10 | 10 to 100 | COc1cc2nccc(Oc3ccc(NC(=O)c4cn(CCN(C)C)c(=O)n(-c5ccc(F)cc5)c4=O)cc3F)c2cc1OC [Example 20, 1-(2-Dimethylaminoethyl)-3-(4-fluorophenyl)-2,4-dioxo-1,2,3,4-tetrahydropyrimidine-5-carboxylic acid [4-(6,7-dimethoxyquinolin-4-yloxy)-3-fluorophenyl]-amide] | –

Continued, compound first:

SMILES | IC50 [1] [nM] | IC50 [2, 3] [nM] | IC50 [2] [nM]
CCC(C)Cn1c(=O)c(C(=O)Nc2ccc(Oc3ccnc4cc(OC)c(OC)cc34)c(F)c2)nn(C)c1=O (racemic) [Example 130, ±2-Methyl-4-(2-methyl-butyl)-3,5-dioxo-2,3,4,5-tetrahydro-[1,2,4]triazine-6-carboxylic acid [4-(6,7-dimethoxy-quinolin-4-yloxy)-3-fluoro-phenyl]-amide] | < 10 | 10 to 100 | –
COc1cc2nccc(Oc3ccc(NC(=O)c4cn(C(C)C)c(=O)n(-c5ccc(F)cc5)c4=O)cc3F)c2cc1OC [Example 5, 3-(4-Fluorophenyl)-1-isopropyl-2,4-dioxo-1,2,3,4-tetrahydropyrimidine-5-carboxylic acid [4-(6,7-dimethoxyquinolin-4-yloxy)-3-fluorophenyl]-amide] | < 10 | – | 10 to 100
COc1cc2nccc(Oc3ccc(NC(=O)c4cn(CC=C(F)F)c(=O)n(-c5ccc(F)cc5)c4=O)cc3F)c2cc1OC [Example 14, 1-(3,3-Difluoro-allyl)-3-(4-fluorophenyl)-2,4-dioxo-1,2,3,4-tetrahydropyrimidine-5-carboxylic acid [4-(6,7-dimethoxyquinolin-4-yloxy)-3-fluorophenyl]-amide] | < 10 | < 10 | –
COc1cc2nccc(Oc3ccc(NC(=O)c4cn(CCN5CCOCC5)c(=O)n(-c5ccc(F)cc5)c4=O)cc3F)c2cc1OC [Example 16, 3-(4-Fluorophenyl)-1-(2-morpholin-4-yl-ethyl)-2,4-dioxo-1,2,3,4-tetrahydropyrimidine-5-carboxylic acid [4-(6,7-dimethoxyquinolin-4-yloxy)-3-fluorophenyl]-amide] | < 10 | < 10 | –
COc1cc2nccc(Oc3ccc(NC(=O)c4c[nH]c(=O)n(-c5ccc(F)cc5)c4=O)cc3F)c2cc1OC [Example 17, 3-(4-Fluorophenyl)-2,4-dioxo-1,2,3,4-tetrahydropyrimidine-5-carboxylic acid [4-(6,7-dimethoxyquinolin-4-yloxy)-3-fluorophenyl]-amide] | < 10 | < 10 | –
COc1cc2nccc(Oc3ccc(NC(=O)c4cn(C)c(=O)n(-c5ccc(F)cc5)c4=O)cc3)c2cc1OC [Example 18, 3-(4-Fluorophenyl)-1-methyl-2,4-dioxo-1,2,3,4-tetrahydropyrimidine-5-carboxylic acid [4-(6,7-dimethoxyquinolin-4-yloxy)-phenyl]-amide] | < 10 | 10 to 100 | –
COc1cc2nccc(Oc3ccc(NC(=O)c4cn(CCCOCc5ccccc5)c(=O)n(-c5ccc(F)cc5)c4=O)cc3)c2cc1OC [Example 21, 1-(3-Benzyloxypropyl)-3-(4-fluorophenyl)-2,4-dioxo-1,2,3,4-tetrahydropyrimidine-5-carboxylic acid [4-(6,7-dimethoxyquinolin-4-yloxy)phenyl]-amide] | < 10 | 10 to 100 | –
COc1cc2nccc(Oc3ccc(NC(=O)c4cn(CCCOCc5ccccc5)c(=O)n(-c5ccc(F)cc5)c4=O)c(F)c3)c2cc1OC [Example 22, 1-(3-Benzyloxypropyl)-3-(4-fluorophenyl)-2,4-dioxo-1,2,3,4-tetrahydropyrimidine-5-carboxylic acid [4-(6,7-dimethoxyquinolin-4-yloxy)-2-fluorophenyl]-amide] | < 10 | 10 to 100 | –
CCn1cc(C(=O)Nc2ccc(Oc3ccnc4cc(OC)cc(OC)c34)cc2)c(=O)n(-c2ccc(F)cc2)c1=O [Example 39, 1-Ethyl-3-(4-fluorophenyl)-2,4-dioxo-1,2,3,4-tetrahydropyrimidine-5-carboxylic acid [4-(5,7-dimethoxyquinolin-4-yloxy)-phenyl]-amide] | < 10 | – | –
COc1cc2nccc(Oc3ccc(NC(=O)c4cn(Cc5csc(C)n5)c(=O)n(-c5ccc(F)cc5)c4=O)cc3F)c2cc1OC [Example 75, 3-(4-Fluoro-phenyl)-1-(2-methyl-thiazol-4-ylmethyl)-2,4-dioxo-1,2,3,4-tetrahydro-pyrimidine-5-carboxylic acid [4-(6,7-dimethoxy-quinolin-4-yloxy)-3-fluoro-phenyl]-amide] | < 10 | – | –
COc1cc2nccc(Oc3ccc(NC(=O)c4cn(C5CCCC5)c(=O)n(-c5ccc(F)cc5)c4=O)cc3F)c2cc1OC [Example 76, 1-Cyclopentyl-3-(4-fluoro-phenyl)-2,4-dioxo-1,2,3,4-tetrahydro-pyrimidine-5-carboxylic acid [4-(6,7-dimethoxy-quinolin-4-yloxy)-3-fluoro-phenyl]-amide] | < 10 | – | –
CCn1cc(C(=O)Nc2ccc(Oc3ccnc4ccc(OC)c(OC)c34)cc2)c(=O)n(-c2ccc(F)cc2)c1=O [Example 167, 1-Ethyl-3-(4-fluoro-phenyl)-2,4-dioxo-1,2,3,4-tetrahydro-pyrimidine-5-carboxylic acid [4-(5,6-dimethoxy-quinolin-4-yloxy)-phenyl]-amide] | < 10 | – | –

— patent publication US9745283B2, “Uracil derivatives as AXL and c-MET kinase inhibitors” (priority 2011, dated 2017)
